Tests used:
[1] = system: MCF10A (GM); experiment: area over the GR curve, 72 h; higher = more effect;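 further: Dye Drop or Deep Dye Drop imaging of viable cells in 384-well plates (Hoechst nuclei, LIVE/DEAD dye), nine half-log doses, GR normalized to DMSO controls and time-zero plates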
[2] = system: PDX1206; experiment: area over the GR curve, 72 h; higher = more effect;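 further: Dye Drop or Deep Dye Drop imaging of viable cells in 384-well plates (Hoechst nuclei, LIVE/DEAD dye), nine half-log doses, GR normalized to DMSO controls and time-zero plates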
[3] = system: PDX1258; experiment: GRmax, 72 h; higher = less effect;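 further: breast cell lines in 384-well plates, nine doses across a 10^4 range, Dye Drop imaging of viable cells vs DMSO and time-zero plates, GR 0 means no net growth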
[4] = system: MCF10A (GM); experiment: GRmax, 72 h; higher = less effect;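 further: breast cell lines in 384-well plates, nine doses across a 10^4 range, Dye Drop imaging of viable cells vs DMSO and time-zero plates, GR 0 means no net growth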
[5] = system: CAL120; experiment: GRmax, 72 h; higher = less effect;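 further: breast cell lines in 384-well plates, nine doses across a 10^4 range, Dye Drop imaging of viable cells vs DMSO and time-zero plates, GR 0 means no net growth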
[6] = system: MDAMB453; experiment: GRmax, 72 h; higher = less effect;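 further: breast cell lines in 384-well plates, nine doses across a 10^4 range, Dye Drop imaging of viable cells vs DMSO and time-zero plates, GR 0 means no net growth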
[7] = system: HCC1954; experiment: GRmax, 72 h; higher = less effect
[8] = system: MDAMB157; experiment: area over the GR curve, 72 h; higher = more effect;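 further: Dye Drop or Deep Dye Drop imaging of viable cells in 384-well plates (Hoechst nuclei, LIVE/DEAD dye), nine half-log doses, GR normalized to DMSO controls and time-zero plates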
[9] = system: HCC1428; experiment: area over the GR curve, 72 h; higher = more effect;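 further: Dye Drop or Deep Dye Drop imaging of viable cells in 384-well plates (Hoechst nuclei, LIVE/DEAD dye), nine half-log doses, GR normalized to DMSO controls and time-zero plates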
[10] = system: HCC1500; experiment: area over the GR curve, 72 h; higher = more effect
[11] = system: MDAMB157; experiment: GRmax, 72 h; higher = less effect

SMILES | area over the GR curve [1] | area over the GR curve [2] | GRmax, 72 h [3] | GRmax, 72 h [4] | GRmax, 72 h [5] | GRmax, 72 h [6] | GRmax, 72 h [7] | area over the GR curve [8] | area over the GR curve [9] | area over the GR curve [10] | GRmax, 72 h [11]
COc1ccc2c(c1)[C@]1(C[C@H]1c1ccc3c(/C=C/c4ccc(CN5C[C@@H](C)O[C@@H](C)C5)cc4)n[nH]c3c1)C(=O)N2 | 0.507 GR | 0.504 GR | -0.0552 GR | 0.0912 GR | 0.175 GR | 0.0847 GR | -0.209 GR |  |  |  | 
COc1cccc(OCCCN)c1-c1cc(Nc2cnc(C#N)cn2)n[nH]1 | 0.245 GR | 0.427 GR | -0.457 GR | 0.322 GR | 0.317 GR | -0.513 GR | -0.312 GR |  |  |  | 
CCCCOc1c(C(=O)c2c(F)cc(C)cc2F)c[nH]c2nncc1-2 (max 10 µM) | 0.423 GR | 0.691 GR | -0.232 GR | 0.106 GR | 0.369 GR | 0.31 GR | -0.0431 GR |  |  |  | 
CNc1nc(-c2ccc3c(N)n[nH]c3c2)cc(N2C[C@@H](C(=O)NC3CCCCC3)CC[C@H]2C)n1 (max 10 µM) | 0.0279 GR | 0.327 GR | 0.644 GR | 0.857 GR | 0.786 GR | 0.147 GR | 0.733 GR |  |  |  | 
CO[C@@H](C)Cn1c(=O)n(C)c2cnc3ccc(-c4cncc(C(C)(C)O)c4)cc3c21 (max 10 µM) | 0.67 GR | 0.804 GR | -0.344 GR | 0.0552 GR | 0.0419 GR | -0.578 GR | -0.346 GR |  |  |  | 
C=CCn1c(=O)c2cnc(Nc3ccc(N4CCN(C)CC4)cc3)nc2n1-c1cccc(C(C)(C)O)n1 [AZD1775] (max 10 µM) | 0.136 GR | 0.455 GR | -0.46 GR | 0.0319 GR | -0.238 GR | -0.249 GR | -0.416 GR |  |  |  | 
CNC(=O)c1cccc(-c2ccc3c(N4CCOC[C@@H]4C)nc(N4CCOC[C@@H]4C)nc3n2)c1 [AZD2014] (max 10 µM) | 0.533 GR | 0.697 GR | -0.118 GR | 0.211 GR | 0.206 GR | 0.134 GR | 0.0889 GR |  |  |  | 
NC1(C(=O)N[C@@H](CCO)c2ccc(Cl)cc2)CCN(c2nc[nH]c3nccc2-3)CC1 [AZD5363] (max 10 µM) | 0.214 GR | 0.4 GR | 0.321 GR | 0.641 GR | 0.806 GR | 0.23 GR | 0.272 GR |  |  |  | 
C[C@@H]1COCCN1c1cc(C2([S@](C)(=N)=O)CC2)nc(-c2cc[nH]c3nccc2-3)n1 [AZD6738] (max 10 µM) | 0.073 GR | 0.0536 GR | -0.295 GR | 0.226 GR | 0.783 GR | -0.162 GR | 0.15 GR |  |  |  | 
CN(C)C/C=C/C(=O)Nc1ccc(O[C@@H]2CCC[C@@H](Nc3ncc(Cl)c(-c4c[nH]c5ccccc45)n3)C2)cc1 [BSJ-01-175] (max 10 µM) | 0.326 GR | 0.9 GR | -0.914 GR | -0.356 GR | -0.272 GR | -0.723 GR | -0.652 GR |  |  |  | 
CC(=O)c1c(C)c2cnc(Nc3ccc(N4CCN(CCOCCOCCOCCNC(=O)COc5cccc6c5C(=O)N(C5CCC(=O)NC5=O)C6=O)CC4)cn3)nc2n(C2CCCC2)c1=O (configuration not stated) [BSJ-03-123] (max 10 µM) | 0.25 GR | 0.163 GR | -0.415 GR | -0.17 GR | 0.239 GR | -0.022 GR | 0.0033 GR |  |  |  | 
CC(C)Nc1cc(-c2c[nH]c(C(=O)N[C@H](CO)c3cccc(Cl)c3)c2)c(Cl)cn1 [BVD523] (max 10 µM) | 0.266 GR | 0.0779 GR | 0.163 GR | 0.225 GR | 0.482 GR | 0.387 GR | 0.264 GR |  |  |  | 
COc1cc([C@@H]2c3cc4c(cc3[C@@H](O[C@@H]3O[C@@H]5CO[C@@H](C)O[C@H]5[C@H](O)[C@H]3O)[C@H]3COC(=O)[C@H]23)OCO4)cc(OC)c1O [Etoposide] (max 10 µM) |  |  | -0.181 GR |  | -0.166 GR | -0.0601 GR | -0.265 GR | 0.609 GR | 0.39 GR | 0.218 GR | -0.434 GR
CO[C@H]1C[C@@H]2CC[C@@H](C)[C@@](O)(O2)C(=O)C(=O)N2CCCC[C@H]2C(=O)O[C@H]([C@H](C)C[C@@H]2CC[C@@H](OCCO)[C@H](OC)C2)CC(=O)[C@H](C)/C=C(\C)[C@@H](O)[C@@H](OC)C(=O)[C@H](C)C[C@H](C)/C=C/C=C/C=C/1C [Everolimus] (max 10 µM) |  |  | 0.631 GR |  | 0.527 GR | 0.0309 GR | 0.326 GR | 0.394 GR | 0.519 GR | 1.26 GR | 0.481 GR
CCC(=O)Nc1ccc(C(=O)Nc2ccc(Nc3ncc4c(n3)N(C)c3ccc(C)cc3C(=O)N4C)cc2)cc1 [FMF-03-145-1] | 0.376 GR | 0.946 GR | -0.267 GR | 0.0984 GR | 0.191 GR | 0.0994 GR | -0.181 GR |  |  |  | 
COc1cc(N2CCN(C)CC2)ccc1Nc1ncc2c(n1)N(C)c1ccccc1C(=O)N2CC(F)(F)F [FMF-03-146-1] | 0.001 GR | -0.0165 GR | 1.2 GR | 0.977 GR | 0.968 GR | 0.803 GR | 0.808 GR |  |  |  | 
CN1CC[C@H](c2c(O)cc(O)c3c(=O)cc(-c4ccccc4Cl)oc23)[C@H](O)C1 [Flavopiridol] (max 1 µM) | 0.316 GR | 0.458 GR | -0.507 GR | -0.307 GR | -0.0459 GR | -0.188 GR | -0.526 GR |  |  |  | 
CC(C)n1nc(-c2ccc3oc(N)nc3c2)c2c(N)ncnc21 [INK128/MLN0128] (max 3.162 µM) |  |  | -0.138 GR |  | -0.0097 GR | -0.468 GR | -0.083 GR | 0.514 GR | 0.648 GR | 1.23 GR | -0.0331 GR
CC(C)NC[C@@H](C(=O)N1CCN(c2ncnc3c2[C@H](C)C[C@H]3O)CC1)c1ccc(Cl)cc1 [Ipatasertib/GDC0068] (max 10 µM) |  |  | 0.399 GR |  | 0.599 GR | -0.155 GR | 0.251 GR | 0.0813 GR | -0.0745 GR | -0.0881 GR | 0.596 GR
CN(C)C(=O)c1cc2cnc(Nc3ccc(N4CCNCC4)cn3)nc2n1C1CCCC1 [LEE011/Ribociclib] (max 10 µM) | 0.166 GR | 0.166 GR | 1.08 GR | 0.519 GR | 0.632 GR | 0.189 GR | 0.543 GR |  |  |  | 
CCNC(=O)c1noc(-c2cc(C(C)C)c(O)cc2O)c1-c1ccc(CN2CCOCC2)cc1 [Luminespib/NVP-AUY922] (max 1 µM) |  |  | -0.29 GR |  | -0.115 GR | -0.499 GR | -0.374 GR | 0.615 GR | 0.637 GR | 0.546 GR | -0.049 GR
